Data as given in patent US7317020B2, “Isolation and structure of Cribrostatin 6” (Arizona Board of Regents, a body corporate of the State of …, priority 2003, dated 2008).
Values after ≈ are worked out from the molar mass of the structure shown. Each block holds one compound with its values, some of them ahead of it.

Columns and labels:
bacteria = conditions: in words; Pettit et al., J. Nat. Prod. 2000; cited from earlier work
fungi = conditions: in words; Pettit et al., J. Nat. Prod. 2000; cited from earlier work
BXPC-3 = test: Cancer cell growth inhibition, human cancer cell line panel; format: cell-based; conditions: BXPC-3, Pancreas-adenocarcinoma, read-out: Inhibitory Activity (GI50)
DU-145 = test: as above; format: cell-based; conditions: DU-145, Prostate, read-out: Inhibitory Activity (GI50)
KM20L2 = test: as above; format: cell-based; conditions: KM-20L2, KM20L2, Colon-adenocarcinoma, read-out: Inhibitory Activity (GI50)
SF-268 = test: as above; format: cell-based; conditions: SF-268, CNS Glioblastoma, read-out: Inhibitory Activity (GI50)
NCI-H460 = test: as above; format: cell-based; conditions: NCI-H460, Lung-NSC, read-out: Inhibitory Activity (GI50)
[1] = test system: Neisseria gonorrhoeae (ATCC 49226); test: Broth microdilution susceptibility assay; format: cell-based; conditions: ATCC49226, read-out: Minimum Inhibitory Concentration
Text: (§1) Compounds were screened against bacteria and fungi according to established broth microdilution susceptibility assays, pursuant to the National Committee for Clinical Laboratory Standards, Methods for Dilution Antimicrobial Susceptibility Tests for Bacteria that Grow Aerobically, Approved Standard M7-A4, Wayne, Pa.: NCCLS, 1997, and the National Conmnittee for Clinical Laboratory Standards, Reference Method for Broth Dilution Antifungal Susceptibility Testing of Yeasts, Approved Standard M27-A, Wayne, Pa.: NCCLS, 1997. The minimum inhibitory concentration was defined as the lowest concentration of compound that inhibited all visible growth of the test organism (optically clear). Assays were repeated on separate days.

[2] = test system: Methicillin-resistant S. aureus (clinical isolate); test: Broth microdilution susceptibility assay; format: cell-based; conditions: Staphylococcus aureus, read-out: Minimum Inhibitory Concentration
Text: as §1

[3] = test system: Escherichia coli (ATCC 25922); test: Broth microdilution susceptibility assay; format: cell-based; conditions: ATCC25922, read-out: Minimum Inhibitory Concentration
Text: as §1

[4] = test system: Stenotrophomonas maltophilia (ATCC 13637); test: Broth microdilution susceptibility assay; format: cell-based; conditions: ATCC13637, read-out: Minimum Inhibitory Concentration
Text: as §1

[5] = test system: Candida albicans (ATCC 90028); test: Broth microdilution susceptibility assay; format: cell-based; conditions: ATCC90028, read-out: Minimum Inhibitory Concentration
Text: as §1

[6] = test system: Enterococcus faecalis (ATCC 29212); test: Broth microdilution susceptibility assay; format: cell-based; conditions: ATCC29212, read-out: Minimum Inhibitory Concentration
Text: as §1

[7] = test system: Cryptococcus neoformans (ATCC 90112); test: Broth microdilution susceptibility assay; format: cell-based; conditions: ATCC90112, read-out: Minimum Inhibitory Concentration
Text: as §1

[8] = test system: Bacillus subtilis (clinical isolate); test: Broth microdilution susceptibility assay; format: cell-based; conditions: read-out: Minimum Inhibitory Concentration
Text: as §1

[9] = test system: Vancomycin-resistant E. faecalis (clinical isolate); test: Broth microdilution susceptibility assay; format: cell-based; conditions: Enterococcus faecalis, read-out: Minimum Inhibitory Concentration
Text: as §1

[10] = test system: Micrococcus luteus (Presque Isle 456); test: Broth microdilution susceptibility assay; format: cell-based; conditions: read-out: Minimum Inhibitory Concentration
Text: as §1

[11] = test system: Staphylococcus aureus (ATCC 29213); test: Broth microdilution susceptibility assay; format: cell-based; conditions: ATCC29213, read-out: Minimum Inhibitory Concentration
Text: as §1

[12] = test system: Invasive S. pneumoniae (clinical isolate); test: Broth microdilution susceptibility assay; format: cell-based; conditions: Streptococcus pneumoniae, read-out: Minimum Inhibitory Concentration
Text: as §1

[13] = test system: Penicillin-resistant S. pneumoniae (clinical isolate); test: Broth microdilution susceptibility assay; format: cell-based; conditions: Streptococcus pneumoniae, read-out: Minimum Inhibitory Concentration
Text: as §1

[14] = test system: Enterobacter cloacae (ATCC 13047); test: Broth microdilution susceptibility assay; format: cell-based; conditions: ATCC13047, read-out: Minimum Inhibitory Concentration
Text: as §1

[15] = test system: Streptococcus pneumoniae (ATCC 6303); test: Broth microdilution susceptibility assay; format: cell-based; conditions: ATCC6303, read-out: Minimum Inhibitory Concentration
Text: as §1

[16] = test system: Group A Streptococcus (clinical isolate); test: Broth microdilution susceptibility assay; format: cell-based; conditions: read-out: Minimum Inhibitory Concentration
Text: as §1

MCF-7 = test: Cancer cell growth inhibition, human cancer cell line panel; format: cell-based; conditions: MCF7, MCF-7, Breast-adenocarcinoma, read-out: Inhibitory Activity (GI50)
[17] = test system: P388 lymphocytic leukemia; test: Cancer cell growth inhibition, murine P388 lymphocytic leukemia; format: cell-based, mouse
Text: Earlier we had observed a number of biologically active blue to black colored fractions arising during P388 lymphocytic leukemia guided separations of a 195 g dichloromethane-soluble portion of the extract obtained from 350 kg (wet wt.) of Cribrochalina sp. The cancer cell growth (P-388) inhibitory dark-colored fractions were finally separated by a successive series of gel permeation and partition chromatographic techniques on Sephadex LH-20. That sequence was followed by high-speed countercurrent distribution using an Ito Coil-Planet centrifuge to afford 88 mg of a dark-blue constituent (P388 ED50 0.3 μg/ml), designated cribrostatin 6 (3). Owing to difficulties in unequivocally deducing the structure of this interesting substance based on spectral evidence, attempts were made at various times over a ten year period to reach a correct solution and/or to produce crystals suitable for X-ray structure determination. We were eventually pleased to find that cribrostatin 6 (3) would crystallize from acetone following long cold storage of the solution. To follow is a summary of the spectral and X-ray crystallographic interpretation that completed a correct structural assignment for cribrostatin 6 (3).
Isolation of Cribrostatin 6 (1). The blue marine sponge Cribrochalina sp. was collected and extracted as known to one of skill in the art, as described in Pettit, G., et al., J. Nat. Prod. […]

Compound: C/C=C(/C)C(=O)OCc1nccc2c1C(=O)C(N)=C(C)C2=O [Cribrostatin 3]
antibacterial activity (bacteria): antibacterial
antifungal activity (fungi): not antifungal

Compound: CC1=C(N)C(=O)c2c(ccnc2C)C1=O [Cribrostatin 1]
antibacterial activity (bacteria): antibacterial
antifungal activity (fungi): not antifungal

GI50 (BXPC-3): > 1 µg/mL
GI50 (DU-145): 0.38 µg/mL (≈ 1.41 µM)
GI50 (KM20L2): > 1 µg/mL
GI50 (SF-268): 0.24 µg/mL (≈ 0.888 µM)
GI50 (NCI-H460): > 1 µg/mL
MIC [1]: 0.0625 µg/mL (≈ 0.231 µM)
MIC [2]: 16 µg/mL (≈ 59.2 µM)
MIC [3]: > 64 µg/mL
MIC [4]: > 64 µg/mL
MIC [5]: 64 µg/mL (≈ 237 µM)
MIC [6]: 32 µg/mL (≈ 118 µM)
MIC [7]: 2 µg/mL (≈ 7.4 µM)
MIC [8]: 2 µg/mL (≈ 7.4 µM)
MIC [9]: 32 µg/mL (≈ 118 µM)
MIC [10]: 16 µg/mL (≈ 59.2 µM)
MIC [11]: 16 µg/mL (≈ 59.2 µM)
MIC [12]: 1 µg/mL (≈ 3.7 µM)
MIC [13]: 2 µg/mL (≈ 7.4 µM)
MIC [14]: > 64 µg/mL
MIC [15]: 0.5 µg/mL (≈ 1.85 µM)
MIC [16]: 16 µg/mL (≈ 59.2 µM)
GI50 (MCF-7): 0.21 µg/mL (≈ 0.777 µM)
GI50 ([17]; P388, Mouse Leukemia, read-out: Inhibitory Activity (GI50)): 0.29 µg/mL (≈ 1.07 µM)
Compound: CCOC1=C(C)C(=O)c2ccn3c(C)ncc3c2C1=O [Cribrostatin 6, 9-ethoxy-3,8-dimethyl-imidazo[5,1-a]isoquinoline-7, 10-dione]
P388 ED50 ([17]; murine P-388 lymphocytic leukemia cell line): 0.3 µg/mL
